From patent US11807873B2, “Conversion of S-lignin compounds to useful intermediates” (Alliance for Sustainable Energy, LLC, priority 2020, dated 2023)

Assays:
[1] = target: GalA (gallate 3,4-dioxygenase) (Pseudomonas putida, UniProt Q88JX5); assay: GalA inactivation kinetic analyses during turnover; format: biochemical
Source text: (§1) GalA preparations had 0.5 equivalents of Fe per mol GalA. GalA cleaved GA with 3-fold higher specificity (˜9×10^5 s^−1 M^−1, see Table 3, FIG. 20) than previously reported. The partition ratio for GA was ˜1900 based on 02 consumption for given amount of GalA (see Table 3, Equation 1). […] Because high concentrations of GalA were needed to detect 3MGA-cleavage activity, cell lysates were used to investigate the inactivation of GalA by 3MGA. Importantly, the inactivation of GalA by GA was similar for the purified enzyme in E. coli lysate (j3^app˜3×10^−2 s^−1, Table 3, FIG. 21). The apparent rate constant of inactivation of GalA by 3MGA was less than 50% higher than for GA (see Table 3).
Inactivation kinetic analyses: GalA inactivation assays were performed by monitoring consumption of 02 using OXYG1 as described in Steady-state kinetic analyses. […] To obtain soluble E. coli lysate containing GalA, 50 mL of culture was suspended in ˜900 μL of 50 mM HEPPS, pH 8.0, 100 mM NaCl. The resuspension was pipetted into a 1.5 mL screw cap tube containing ˜100 μL of 0.1 mm silica sand. Cell were lysed using a Bead Beater rotor (MP Biomedical). Cellular debris and sand were removed by centrifugation. The clarified was removed to a micro centrifuge tube and kept on ice until use.
(§2) The amount of GalA added to the assay was such that the enzyme was completely inactivated before 10% of either the catecholic substrate or 02 was consumed in the reaction mixture. The partition ratio was calculated using Equation 1 shown above.
(§3) The apparent apparent rate constant of inactivation during catalytic turnover in air-saturated buffer, j3^app, was determined by fitting Equation 2 to reaction progress curves where St is the substrate concentration at time t. st=(s0−s∞)e^−j^3^app^t+s∞ Equation 2

[2] = target: T1, PcaHG (PCA 3,4-dioxygenase) (Pseudomonas putida, UniProt P00436+P00437); assay: PcaHG steady-state kinetics, oxygraph and spectrophotometric assays; format: biochemical, P. putida KT2440
T1 construct: poly-histidine tag with TEV protease site (N, cleaved yes); made in house; host or cells: E. coli BL-21 λ(DE3)
T1 sequence (P00437 1-239): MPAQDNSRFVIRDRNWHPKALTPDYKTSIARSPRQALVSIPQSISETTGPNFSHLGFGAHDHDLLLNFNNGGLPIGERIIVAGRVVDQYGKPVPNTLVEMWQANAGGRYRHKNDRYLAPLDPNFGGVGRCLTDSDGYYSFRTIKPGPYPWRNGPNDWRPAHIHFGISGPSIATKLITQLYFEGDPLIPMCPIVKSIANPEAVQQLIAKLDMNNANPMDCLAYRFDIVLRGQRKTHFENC
T1 sequence (P00436 2-201 limits assumed): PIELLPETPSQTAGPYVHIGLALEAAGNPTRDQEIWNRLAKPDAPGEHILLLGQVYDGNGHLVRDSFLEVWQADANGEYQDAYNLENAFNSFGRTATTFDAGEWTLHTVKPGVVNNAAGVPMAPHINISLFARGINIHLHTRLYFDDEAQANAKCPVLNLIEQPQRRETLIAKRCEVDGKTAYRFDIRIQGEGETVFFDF
Protocol: (§4) Steady-state kinetic analyses: Kinetic assays were performed by monitoring the consumption of O2 using a Clark-type polarographic O2 electrode OXYG1 (Hansatech) connected to a circulating water bath. Assays with the exception of GalA were performed in 1 mL of air-saturated 40 mM HEPES, 80 mM NaCl (I=0.1 M, pH 7.5) at 25° C. GalA assays were performed in 40 mM MOPS, 80 mM NaCl (I=0.1 M, pH 7.0) at 30° C. The electrode was calibrated daily according to the manufacturer's instructions using air-saturated buffer and water depleted of 02 via addition of sodium hydrosulfite. Stock solutions were prepared fresh daily. The background rate of O2-consumption was recorded prior to initiating the reaction and was subtracted from the measured reaction rate. Steady-state kinetic parameters were evaluated by fitting the Michaelis-Menten equation to the data using the least-squares fitting of LEONORA.
(§5) Stock solutions of the substrates were made in dimethylsulfoxide (DMSO). The final concentration of DMSO in the assay solutions was <1% (v/v). […] The reaction was initiated by adding 0.1 μM PcaHG.

[3] = target: T2, VanAB (vanillate O-demethylase) (Pseudomonas putida, UniProt Q88GI6); assay: VanAB steady-state kinetics, O2 consumption (oxygraph)
T2 sequence (Q88GI6 entry or part of it): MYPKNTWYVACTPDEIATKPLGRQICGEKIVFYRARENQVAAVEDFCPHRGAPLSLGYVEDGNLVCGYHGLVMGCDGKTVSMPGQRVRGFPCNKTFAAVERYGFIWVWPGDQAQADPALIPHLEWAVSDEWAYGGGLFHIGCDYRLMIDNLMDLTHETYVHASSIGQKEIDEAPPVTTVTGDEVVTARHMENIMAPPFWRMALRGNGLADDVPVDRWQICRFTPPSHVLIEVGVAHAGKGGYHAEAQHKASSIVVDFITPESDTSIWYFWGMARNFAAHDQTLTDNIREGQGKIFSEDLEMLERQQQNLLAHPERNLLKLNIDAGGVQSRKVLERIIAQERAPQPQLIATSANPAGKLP
T2 sequence (Q88GI5 entry or part of it, further chain): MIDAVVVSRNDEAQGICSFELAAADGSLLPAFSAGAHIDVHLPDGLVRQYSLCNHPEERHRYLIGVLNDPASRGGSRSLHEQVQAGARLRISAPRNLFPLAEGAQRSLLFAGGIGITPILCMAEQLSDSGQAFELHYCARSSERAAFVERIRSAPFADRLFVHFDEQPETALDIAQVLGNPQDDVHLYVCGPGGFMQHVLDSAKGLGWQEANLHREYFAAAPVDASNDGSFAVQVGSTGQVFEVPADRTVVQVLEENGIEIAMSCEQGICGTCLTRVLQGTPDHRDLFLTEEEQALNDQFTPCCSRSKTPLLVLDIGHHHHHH
Protocol: In evaluating the parameters for VA, 0.4 μM VanA was used to ensure steady-state conditions at low concentrations of VA.
as §4
For VanAB, the standard reaction contained 1 μM VanA, 2 μM Ht-VanB, and 400 μM NADH. […] Stock solutions of the substrates were made in dimethylsulfoxide (DMSO). The final concentration of DMSO in the assay solutions was <1% (v/v). For PcaHG, the standard reaction contained 250 μM PCA. The reaction was initiated by adding 0.1 μM PcaHG. […] The reaction was initiated by adding 0.05 μM GalA.

[4] = target: T2, VanAB (vanillate O-demethylase); assay: VanAB coupling of O-demethylation to O2 consumption (HPLC-based assay); format: biochemical, P. putida KT2440; conditions: quenched after ~100 μM O2 consumed; for Coupling Substrate/O2: ratio of aromatic substrate consumed:O2 consumed; for Coupling Product/O2: ratio of product produced:O2 consumed
Protocol: The ability of VanAB to catalyze the O-demethylation of VA, SA, and 3MGA was evaluated first. Using an HPLC-based assay, the enzyme transformed VA, SA, and 3MGA to PCA, 3MGA, and GA, respectively (see FIG. 14). When reactions were quenched after ˜100 μM of O2 was consumed, the amounts of substrate consumed, and product detected, were equal to the amount of O2 consumed within error (see Table 3). […] However, in the absence of VanA, VanB consumed NADH and O2 to produce H2O2 in the presence of SA. This adventitious consumption of NADH and O2 was not observed in the presence of VA or 3MGA. Further, in reactions containing 2 μM VanB, 1 μM VanA completely outcompeted the reaction of SA with VanB.
HPLC characterization of transformation products and flavin content: Oxygenase turnover and VanB flavin content were evaluated using a Waters 2695 Separation HPLC module (Milford, MA) equipped with a Waters 2996 photodiode array detector. VanAB reactions contained ˜1 μM VanA, ˜1 μM VanB and 200 μM substrate in air-saturated HEPES (I=0.1 M, pH 7.5). Reactions were incubated for 30 min at 25° C., quenched with glacial acetic acid (final concentration 10% (v/v)), then centrifuged and filtered (0.2 μm) to remove protein. Substrates and products were resolved using a 250×4.6 mm Luna 5 m C18(2) column (Phenomenex, Torrance, CA) and a linear gradient of 0.1% formic acid and methanol. Compound amounts were assessed using integrated peak areas at 260 nm and standard curves for each compound.

[5] = test system: wild-type P. putida KT2440; assay: Toxicity effects on growth of wild-type strain (OD600); format: cell-based, Pseudomonas putida KT2440; conditions: M9 minimal media, 20 mM glucose
Protocol: Error bars represent the absolute value of two biological replicates.
Bacterial strains, media, and cultivations: Pseudomonas putida KT2440 (ATCC® 47054) was utilized as the wild-type and base strain for all further engineering. Gene deletion, insertion, or replacements in P. putida KT2440 were performed using the antibiotic/sacB counter-selection method as previously described. Diagnostic colony PCR was performed with MyTaq® HS Red Mix (Bioline, USA) to confirm gene deletion, insertion, or replacement (see Table 3 and Table 8). M9 minimal medium was prepared as 6.78 g/L Na2HPO4, 3 g/L KH2PO4, 0.5 g/L NaCl, 1 g/L NH4Cl, 2 mM MgSO4, 100 μM CaCl2), and 18 μM FeSO4, pH 7.0. […] Sodium formate (Sigma, USA) was used to prepare formate stocks in water. Stocks of syringaldehyde were made in 2% (v/v) DMSO. Glucose at 1 M concentration (Sigma, USA) was prepared in water. All carbon sources were 0.2 μm filtered prior to media addition. KT2440 strains were revived from glycerol stocks in LB medium overnight at 30° C. prior to washing in M9 minimal medium. Washed cells were inoculated to an OD600 of 0.1 in 25 mL of M9 minimal media supplemented with the specified carbon/energy source in 125 mL baffled flasks and incubated at 30° C., 225 rpm in biological duplicate or triplicate, as indicated. In the case of 3MGA, the culture volume was reduced to 10 mL in 50 mL baffled flasks due to the cost of this substrate. […] In the case of formate feeding, cultivations were subsequently pH adjusted to pH 7.1-7.3 with formic acid, which provided an additional 0.13-1.75 mmol of formate. To measure cell growth and quantify metabolites, cultures were sampled by removing 1 mL, measuring OD600 of a 1:10 or 1:100 dilution, centrifuging to pellet the cells, and blanking with the OD600 of the supernatant to account for darkening of some cultures due to oxidation of intermediates.
In vivo reactions: Wild-type P. putida KT2440 and engineered strains were cultivated overnight in LB medium and centrifuged. […] Flasks were inoculated to an OD600 of 0.1 and incubated at 30° C., 225 rpm. Cultures were sampled periodically by removing 1 mL that was used to measure the OD600 as well as metabolite analysis (see below). Shake flask experiments were performed in triplicate. In the case of 3-MGA, the culture was downscaled to 10 mL in 50 mL baffled flasks and performed in duplicate.

[6] = substrate: O=C(O)c1cc(O)c(O)c(O)c1; assay: PcaHG steady-state kinetics, oxygraph and spectrophotometric assays; format: biochemical, P. putida KT2440; conditions: other: air-saturated HEPES (I = 0.1M), pH 7.5, 25° C
Protocol: as §4, §5

[7] = substrate: COc1cc(C(=O)O)cc(O)c1O; assay: GalA inactivation kinetic analyses during turnover; format: biochemical; conditions: other: calculated from j3^app and partition ratio, MOPS (I = 0.1M, pH 7.0), 30° C
Source text: as §1
Inactivation kinetic analyses: GalA inactivation assays were performed by monitoring consumption of 02 using OXYG1 as described in Steady-state kinetic analyses. […]
as §2, §3

[8] = substrate: O=C(O)c1cc(O)c(O)c(O)c1; assay: GalA steady-state kinetics, O2 consumption (oxygraph); format: biochemical, P. putida KT2440; conditions: other: air-saturated 40 mM MOPS, 80 mM NaCl (I = 0.1M, pH 7.0), 30° C
Protocol: Steady-state kinetic analyses: Kinetic assays were performed by monitoring the consumption of O2 using a Clark-type polarographic O2 electrode OXYG1 (Hansatech) connected to a circulating water bath. […] GalA assays were performed in 40 mM MOPS, 80 mM NaCl (I=0.1 M, pH 7.0) at 30° C. The electrode was calibrated daily according to the manufacturer's instructions using air-saturated buffer and water depleted of 02 via addition of sodium hydrosulfite. Stock solutions were prepared fresh daily. The background rate of O2-consumption was recorded prior to initiating the reaction and was subtracted from the measured reaction rate. Steady-state kinetic parameters were evaluated by fitting the Michaelis-Menten equation to the data using the least-squares fitting of LEONORA.
Stock solutions of the substrates were made in dimethylsulfoxide (DMSO). The final concentration of DMSO in the assay solutions was <1% (v/v). […] The reaction was initiated by adding 0.05 μM GalA.

COc1cc(C(=O)O)cc(O)c1O [3MGA, 3-O-methylgallate]
apparent rate constant of inactivation of GalA, higher than for GA [1]: less than 50%
kcat^app relative to that for GA [1]: ~0.025%
partition ratio relative to that for GA [1]: 0.2%
j3^app (apparent rate constant of inactivation during turnover) ([1]; air-saturated 40 mM MOPS, 80 mM NaCl (I = 0.1M, pH 7.0), 30° C): 3.8 ± 0.3 ×10^−2 s^−1
Partition Ratio ([1]; calculated from the O2 consumption for a given amount of GalA): 3.3 ± 0.6
cleavage by PcaHG ([2]; oxygraph and spectrophotometric assays): did not detectably cleave
apparent specificity of VanAB relative to that for VA ([3]; O-demethylation): ~1%
Coupling Substrate/O2 [4]: 1.0 ± 0.1 mol:mol
Coupling Product/O2 [4]: 1.1 ± 0.2 mol:mol

O=C(O)c1ccc(O)c(O)c1 [PCA, protocatechuate]
specific activity of purified PcaHG [2]: 3.8 U/mg
kcat^app ([2]; air-saturated HEPES (I = 0.1M), pH 7.5, 25° C): 0.95 ± 0.03 s⁻¹
Km ([2]; air-saturated HEPES (I = 0.1M), pH 7.5, 25° C, read-out: KM^app): 33 ± 2 µM

COc1cc(C(=O)O)cc(OC)c1O [SA, syringate]
toxicity to P. putida KT2440 compared with VA [5]: more toxic
growth at 120 mM substrate [5]: able to grow

COc1cc(C=O)cc(OC)c1O [SAL, syringaldehyde]
toxicity to P. putida KT2440 compared with VA [5]: more toxic

COc1cc(C(=O)O)ccc1O [VA, vanillate]
growth at 120 mM substrate [5]: not
apparent specificity of VanAB ([3]; 0.4 μM VanA): ~200000 s⁻¹ M⁻¹
Coupling Substrate/O2 [4]: 1.3 ± 0.2 mol:mol
Coupling Product/O2 [4]: 1.1 ± 0.1 mol:mol

B1: PcaHG (PCA 3,4-dioxygenase) (Pseudomonas putida) (protein)
chain 1: T1 sequence (P00437 1-239)
chain 2: T1 sequence (P00436 2-201 limits assumed)
notes: poly-histidine tag with TEV protease site (N, cleaved yes); made in house; host or cells: E. coli BL-21 λ(DE3)
Km [6]: 15 ± 2 µM
kcat [6]: 0.0675 ± 0.0003 s⁻¹
kcat/Km [6]: 0.51 ± 0.06 ×10^4 s^−1 · M^−1

B2: GalA (gallate 3,4-dioxygenase) (Pseudomonas putida KT2440) (protein)
chain: MARIIGGLAVSHTPTIGFAVDHDKQEEAAWAPIFESFEPIRTWLQQRQPDVLFYIFNDHITSFFFDHYSAFTLGVDEQYGVADEGGNPRDLPPVGGHAALSRHIGQSLMADEFDMSFFRDKPLDHGFFSPMSALLPCDESWPVQIVPLQVGVLQLPIPTARRCYKLGQALRRAIESYPEDLKVAIVATGGVSHQVHGERCGFNNPEWDAQFLDLLVNDPQRLTEMTLAEYATLGGMEGAEVITWLIMRGTLSANVERKHQSYYLPSMTGIATLLLENRDQALPAPVNERHRQHMQHQLAGAEQLEGTYPYTLERSAKGYRLNKFLHRMIEPQWRQRFLSEPEALYREAGLSEEESDLLRRRDWRGLIHYGVIFFVLEKLGAVLGVSNLDIYAAMRGQSIEDFMKTRNQQVRYSVAGKAPN
kcat [7]: 0.012 ± 0.002^d s^−1
Km [8]: 59 ± 5 µM
kcat [8]: 52 ± 4 s⁻¹
kcat/Km [8]: 90 ± 10 ×10^4 s^−1 · M^−1
